Test results as given in article PMC5531494, “Target specificity, in vivo pharmacokinetics, and efficacy of the putative STAT3 inhibitor LY5 in osteosarcoma, Ewing's sarcoma, and rhabdomyosarcoma” (PLoS ONE, 2017).
Like-named read-outs stand apart in the source and are kept apart here.

How the values were obtained:
[1] = PK in normal beagle dogs, IV and oral gavage; format: in vivo; conditions: plasma; for bioavailability: dog, po, read-out: F (oral bioavailability)
Experimental: LY5 was evaluated in two normal purpose-bred beagle dogs (female 8.8 kg; male 11.2 kg) receiving a single dose of 1mg/kg LY5 IV then orally by gavage 7 days later to establish the PK profile and assess the spectrum of clinical toxicities associated with LY5 administration. The oral dosing was repeated in the fed and fasted state. The starting dose was determined based on allometric scaling from the maximal tolerated dose studies performed in mice. Dogs were washed out for 30 days, and then given a dose of 25 mg in a capsule orally, followed by a 50 mg capsule dose 14 days later. Full PK sampling was performed over 24 hours following each dose of LY5. The dogs received LY5 and were used for the PK analysis but were not euthanized upon conclusion of the study.
(§1) The liquid chromatography-mass spectrometry system utilized for these analyses consisted of a Dionex Ultimate 3000 RSLCnano High Performance Liquid Chromatography system and a Thermo Finnigan Quantum Ultras EMR mass spectrometer with an electrospray ionization source. Positive ionization mode was used for both LY5 and the internal standard, hesperetin. Plasma samples were collected and analyzed by the OSU James Comprehensive Cancer Center Pharmacoanalytical Shared Resource. Pharsight Phoenix WinNonlin software using non-compartmental analysis was used to generate PK parameters including maximum plasma concentration (Cmax), amount of time that drug is present at Cmax (Tmax), and total area under the curve (AUC). AUC all and AUC last were calculated by linear trapezoidal method of concentration-time curve up to the last measured point. AUC inf-obs was calculated by log-linear extrapolation of the terminal phase beyond the last collection time. Bioavailability (F) was calculated for IP and PO administration routes. Plasma stability and liver microsomal stability of LY5 were also assessed through this shared resource.

[2] = Plasma PK profile in mice; format: in vivo; conditions: ICR, mouse; for AUC(0-inf): read-out: AUC inf-obs; for bioavailability: read-out: F (bioavailability)
Experimental: Single-dose toxicity studies in mice were performed to identify the maximum tolerated dose of LY5. Additionally, 30 ICR mice (Harlan Laboratories, Indianapolis, IN) were divided into 3 groups to be dosed with 5 mg/kg LY5 (2 mg/ml) by oral (PO), intraperitoneal (IP) or intravenous (IV) routes to establish oral bioavailability. Animals were euthanized and blood was collected at allocated time points (5, 10, 20, 30 and 60 minutes, 2, 4, 6, 8 and 24 hrs) after LY5 administration, plasma was separated by centrifugation and frozen immediately on dry ice. Samples were stored at -80° C prior to analysis.
as §1

STAT4 = target: T1, STAT4 (Homo sapiens, UniProt Q14765); assay: Cytokine-induced STAT4 phosphorylation in SJSA cells, Western blot; format: cell-based; conditions: induced by IFN-γ, IFN-α, or IL-4
T1 construct: endogenous in cells; host or cells: SJSA
Experimental: (§2) Cell lysis, protein isolation and immunoblotting were performed as described previously. Twenty micrograms of protein were resolved using 4–12% Bis-Tris polyacrylamide gels. Gels were transferred to PVDF membranes and subjected to blocking and incubation with primary and secondary antibodies. The primary antibodies used in this study included: phospho-STAT3 (Tyr705, Cell Signaling, Boston, MA and Abcam, Cambridge, MA), total STAT3 (Cell Signaling and Abcam), phospho-STAT1 (Cell Signaling), total STAT1 (Cell Signaling), phospho-STAT2 (Cell Signaling), phospho-STAT4 (Cell Signaling), phospho-STAT6 (Cell Signaling), and GAPDH (Cell Signaling). Protein bands were detected using Western Lightning ® Plus Enhanced Chemiluminescence substrate (Perkin Elmer, Waltham, MA) and HyBlot CL ® Autoradiography film (Denville Scientific, Holliston, MA). The cytokines used in this study included: interferon gamma (IFN-γ, Cell Signaling), interferon alpha (IFN-α, Cell Signaling), interleukin-4 (IL-4, Cell Signaling), interleukin-6 (IL-6, Cell Signaling), and oncostatin M (OSM, Cell Signaling).
(§3) Fig 1 LY5 inhibits pSTAT3 in sarcoma cell lines. (A) The tumor cell lines RH30, EW8, and RD were treated with increasing concentrations of LY5 for 30 minutes. Cell lysates were collected for Western blotting of p-STAT3, total STAT3, and GAPDH. GAPDH was used as loading control. […]

STAT3 [3] = target: T2, STAT3 (Homo sapiens, UniProt P40763); assay: STAT3 phosphorylation in OS-1 PDX tumors; format: in vivo, mice; design: from tissue; host or cells: OS-17-luc lung metastases and OS-1 subcutaneous PDX tumours in C.B-17 scid mice; conditions: 40 mg/kg twice daily, tumors harvested 2 hrs after final drug administration
Experimental: To further examine the efficacy of LY5, we administered LY5 using subcutaneous PDX models of RMS (RH10 and RH36) and OS (OS-17 and OS-1). RH10, RH36 and OS-1 were derived from tissue explants, therefore no corresponding cell lines exist. Tumors were harvested 2 hrs after final drug administration. […] In addition, STAT3 phosphorylation was not observed in control or treated tumor derived from OS-17, and inhibition of STAT3 phosphorylation was not observed in OS-1 PDX models treated with 40 mg/kg twice daily.

STAT3 [4] = target: T2, STAT3; assay: Western blot of basal p-STAT3 (Tyr705) in sarcoma cell lines RH30, EW8, RD; format: cell-based; design: endogenous in cells; conditions: ES, OS and RMS cells, RH30, EW8, RD treated 30 minutes
Experimental: as §2, §3

[5] = female, Dog #2, PO fed, 1.28 mg/kg, dog vomited 10 min after dosing
[6] = female, Dog #2, PO w/ fast, 0.9 mg/kg
[7] = male, Dog #1, PO fed, 1.28 mg/kg
[8] = male, Dog #1, PO w/ fast, 0.9 mg/kg

T2 sequence (P40763 whole entry): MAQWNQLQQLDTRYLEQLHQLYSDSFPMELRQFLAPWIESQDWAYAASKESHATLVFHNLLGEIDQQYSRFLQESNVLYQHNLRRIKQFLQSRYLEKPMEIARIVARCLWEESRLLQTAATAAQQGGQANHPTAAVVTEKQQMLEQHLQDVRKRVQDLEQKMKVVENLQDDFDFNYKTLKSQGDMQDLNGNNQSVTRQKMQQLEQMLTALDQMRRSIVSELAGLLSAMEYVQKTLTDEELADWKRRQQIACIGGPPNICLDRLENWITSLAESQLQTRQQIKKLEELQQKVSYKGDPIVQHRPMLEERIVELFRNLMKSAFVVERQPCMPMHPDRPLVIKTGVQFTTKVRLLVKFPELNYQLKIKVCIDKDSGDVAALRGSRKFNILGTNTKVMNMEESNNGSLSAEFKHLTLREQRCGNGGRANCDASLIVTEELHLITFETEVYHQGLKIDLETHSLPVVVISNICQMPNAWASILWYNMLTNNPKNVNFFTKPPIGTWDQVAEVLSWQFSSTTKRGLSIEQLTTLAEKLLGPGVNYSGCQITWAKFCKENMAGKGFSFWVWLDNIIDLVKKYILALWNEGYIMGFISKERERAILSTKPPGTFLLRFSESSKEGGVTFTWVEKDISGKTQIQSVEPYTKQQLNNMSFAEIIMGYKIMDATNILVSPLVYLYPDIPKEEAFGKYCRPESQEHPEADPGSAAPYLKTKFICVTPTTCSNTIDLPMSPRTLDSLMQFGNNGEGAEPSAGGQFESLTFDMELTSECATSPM
T1 sequence (Q14765 whole entry): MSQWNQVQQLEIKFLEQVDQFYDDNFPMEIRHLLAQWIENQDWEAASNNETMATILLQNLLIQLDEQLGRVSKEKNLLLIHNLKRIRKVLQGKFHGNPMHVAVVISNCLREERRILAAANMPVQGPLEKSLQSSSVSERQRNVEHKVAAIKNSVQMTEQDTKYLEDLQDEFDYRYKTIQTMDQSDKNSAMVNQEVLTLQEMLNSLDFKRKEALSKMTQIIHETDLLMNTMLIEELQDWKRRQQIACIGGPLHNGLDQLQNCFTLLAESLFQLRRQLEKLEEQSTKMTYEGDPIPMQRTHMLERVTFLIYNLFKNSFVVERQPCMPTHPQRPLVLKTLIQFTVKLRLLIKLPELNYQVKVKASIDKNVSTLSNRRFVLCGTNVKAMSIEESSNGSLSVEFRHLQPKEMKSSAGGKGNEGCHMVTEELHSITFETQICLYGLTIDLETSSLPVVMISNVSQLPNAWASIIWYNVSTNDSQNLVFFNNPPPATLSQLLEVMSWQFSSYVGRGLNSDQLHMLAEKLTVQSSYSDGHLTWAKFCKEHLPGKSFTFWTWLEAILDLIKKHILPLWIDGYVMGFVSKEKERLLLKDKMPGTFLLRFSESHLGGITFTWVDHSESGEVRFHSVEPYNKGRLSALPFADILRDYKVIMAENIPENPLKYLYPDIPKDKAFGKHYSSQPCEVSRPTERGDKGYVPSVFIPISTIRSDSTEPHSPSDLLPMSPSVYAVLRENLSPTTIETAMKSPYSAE

## NS(=O)(=O)c1cccc2c1C(=O)C=C(Nc1cccnc1)C2=O [LY5, 5,8-dioxo-6-(pyridin-3-ylamino)-5,8-dihydronaphthalene-1-sulfonamide]
[1]; female, 0.9 mg/kg, Dog #2, PO w/ fast (fasted female dog)
  bioavailability: 44.3%
[1]; female, 1 mg/kg, Dog #2, PO w/ fast (fasted female dog)
  bioavailability: 44%
[1]; female, 1.28 mg/kg, Dog #2, PO fed, dog vomited 10 min after dosing
  bioavailability: 5%
[1]; female, Dog #2, IV, 0.97 mg/kg
  AUC: 3.92 µM·h
  Cmax: 3220 nM
[1]; [5]
  AUC: 0.258 µM·h
  Cmax: 60.4 nM
[1]; [6]
  AUC: 1.61 µM·h
  Cmax: 500 nM
[1]; male, 0.9 mg/kg, Dog #1, PO w/ fast (fasted male dog)
  bioavailability: 51.6%
[1]; male, 1 mg/kg, Dog #1, PO fed
  bioavailability: 14%
[1]; male, 1 mg/kg, Dog #1, PO w/ fast (fasted male dog)
  bioavailability: 52%
[1]; male, 1.28 mg/kg, Dog #1, PO fed
  bioavailability: 13.7%
[1]; male, Dog #1, IV, 0.97 mg/kg
  AUC: 5.1 µM·h
  Cmax: 5590 nM
[1]; [7]
  AUC: 0.924 µM·h
  Cmax: 206 nM
[1]; [8]
  AUC: 2.44 µM·h
  Cmax: 1280 nM
[2]; 5 mg/kg IP
  AUC: 0.717 µM·h
  Cmax: 545 nM
  Tmax: 4.98 min
  AUC(0-inf): 0.794 µM·h
  bioavailability: 69.5%
[2]; 5 mg/kg IV
  AUC: 1.14 µM·h
  Cmax: 1660 nM
  Tmax: 4.98 min
  AUC(0-inf): 1.14 µM·h
[2]; 5 mg/kg PO
  AUC: 0.784 µM·h
  Cmax: 509 nM
  Tmax: 30 min
  AUC(0-inf): 0.898 µM·h
  bioavailability: 78.6%
STAT4
  phosphorylation of STAT4: did not inhibit
STAT3 [3]
  inhibition of STAT3 phosphorylation in tumors: not observed
STAT3 [4]
  basal STAT3 phosphorylation at Tyr705: inhibited basal STAT3 phosphorylation
